Tests used:
[1] = system: Erysiphe graminis f. sp. tritici; test: Test A: wheat powdery mildew disease control (wheat seedlings); assay type: in vivo; details: sprayed at 1000 to 2 ppm (rate not given per compound)
Experimental: The test compounds were dissolved in acetone in an amount equal to 6% of the final volume and then suspended at a concentration of from 1000 to 2 ppm in purified water containing 250 ppm of the surfactant TREM 014 (polyhydric alcohol esters). This suspension was sprayed to the point of run-off on wheat seedlings. The following day plants were inoculated with a spore dust of Erysiphe graminis f. sp. tritici, the causal agent of wheat powdery mildew, and incubated in a growth chamber at 20° C. for 7 days, when disease ratings were made.

Puccinia recondita = test: Test B: wheat leaf rust disease control (wheat seedlings); assay type: in vivo; details: sprayed at 1000 to 2 ppm (rate not given per compound)
Experimental: The test compounds were dissolved in acetone in an amount equal to 6% of the final volume and then suspended at a concentration of from 1000 to 2 ppm in purified water containing 250 ppm of the surfactant TREM 014 (polyhydric alcohol esters). This suspension was sprayed to the point of run-off on wheat seedlings.

Venturia inaequalis = test: Test C: apple scab disease control (apple seedlings); assay type: in vivo; details: sprayed at 1000 to 2 ppm (rate not given per compound)
Experimental: The test compounds were dissolved in acetone in an amount equal to 6% of the final volume and then suspended at a concentration of from 1000 to 2 ppm in purified water containing 250 ppm of the surfactant TREM 014 (polyhydric alcohol esters). This suspension was sprayed to the point of run-off on apple seedlings. The following day plants were inoculated with a spore suspension of Venturia inaequalis, the causal agent of apple scab, and incubated in a saturated humidity chamber at 20° C. for 24 hours and then in a growth chamber at 22° C. for 11 days, when disease ratings were made.

Cercosporidum personatum = test: Test D: peanut late leaf spot disease control (peanut seedlings); assay type: in vivo; details: sprayed at 1000 to 2 ppm (rate not given per compound)
Experimental: The test compounds were dissolved in acetone in an amount equal to 6% of the final volume and then suspended at a concentration of from 1000 to 2 ppm in purified water containing 250 ppm of the surfactant TREM 014 (polyhydric alcohol esters). This suspension was sprayed to the point of run-off on peanut seedlings. The following day plants were inoculated with a spore suspension of Cercosporidum personatum, the causal agent of peanut late leaf spot, and incubated in a saturated humidity chamber at 22° C. for 24 hours and then in a high humidity chamber at 27° C. for 7 days, and then in a growth chamber at 29° C. for 7 days, when disease ratings were made.

Botrytis cinerea = test: Test E: cucumber grey mold disease control (cucumber seedlings); assay type: in vivo; details: sprayed at 1000 to 2 ppm (rate not given per compound)
Experimental: The test compounds were dissolved in acetone in an amount equal to 6% of the final volume and then suspended at a concentration of from 1000 to 2 ppm in purified water containing 250 ppm of the surfactant TREM 014 (polyhydric alcohol esters). This suspension was sprayed to the point of run-off on cucumber seedlings. The following day plants were inoculated with a spore suspension of Botrytis cinerea, the causal agent of cucumber grey mold, and incubated in a saturated humidity chamber at 20° C. for 48 hours and then in a greenhouse for 5 days, when disease ratings were made.

Phytophthora infestans = assay type: in vivo; details: tomato late blight; sprayed at 1000 to 2 ppm (rate not given per compound)
Pyricularia oryzae = assay type: in vivo; details: rice blast; sprayed at 1000 to 2 ppm (rate not given per compound)
Rhizoctonia solani = test: Test I: rice sheath blight disease control (rice seedlings); assay type: in vivo; details: sprayed at 1000 to 2 ppm (rate not given per compound)
Experimental: The test compounds were dissolved in acetone in an amount equal to 6% of the final volume and then suspended at a concentration of from 1000 to 2 ppm in purified water containing 250 ppm of the surfactant TREM 014 (polyhydric alcohol esters). This suspension was sprayed to the point of run-off on rice seedlings. The following day plants were inoculated with a mycelial suspension of Rhizoctonia solani, the causal agent of rice sheath blight, and incubated in a saturated humidity chamber at 27° C. for 48 hours and then in a growth chamber at 29° C. for 4 days, when disease ratings were made.

[2] = system: isolation-induced aggressive behavior; test: Isolation-Induced Aggression in Mice; assay type: in vivo, mouse (male Balb/c); details: po
Experimental: Male Balb/c mice (Charles River) were used. […] Isolated mice failing to consistently attack an intruder were eliminated from the colony.
Drug testing was carried out by treating the isolated mice with test drugs or standards. Fifteen min after dosing with drugs by the oral route (po), one isolated mouse was removed from its home cage and placed in the home cage of another isolate. Scoring was a yes or no response for each pair. A maximum of 3 min was allowed for an attack and the pair was separated immediately upon an attack. Selection of home cage and intruder mice was randomized for each test. Mice were treated and tested twice a week with at least a 2 day washout period between treatments.

Plasmopara viticola = test: Test G: grape downy mildew disease control (grape seedlings); assay type: in vivo; details: sprayed at 1000 to 2 ppm (rate not given per compound)
Experimental: The test compounds were dissolved in acetone in an amount equal to 6% of the final volume and then suspended at a concentration of from 1000 to 2 ppm in purified water containing 250 ppm of the surfactant TREM 014 (polyhydric alcohol esters). This suspension was sprayed to the point of run-off on grape seedlings. The following day plants were inoculated with a spore suspension of Plasmopara viticola, the causal agent of grape downy mildew, and incubated in a dew chamber at 20° C. for 24 hours and then in a growth chamber a 20° C. for 7 days, when disease ratings were made.

Row | Structure (SMILES) | disease control rating, Test A [1] | disease control rating, Test B (Puccinia recondita) | disease control rating, Test C (Venturia inaequalis) | disease control rating, Test D (Cercosporidum personatum) | disease control rating, Test E (Botrytis cinerea) | disease control rating, Test F (Phytophthora infestans) | disease control rating, Test H (Pyricularia oryzae) | disease control rating, Test I (Rhizoctonia solani) | inhibiting the isolation-induced aggressive behavior (in words) [2] | disease control rating, Test G (Plasmopara viticola)
1 | Fc1ccc(COCC2CCN(Cc3ccc4ccccc4c3)CC2)cc1 [Example 195] | 99% | 73% | 68% | 46% | 0% | 0% | 0% | 0% |  | 
2 | Fc1ccc(COCC2CCN(Cc3ccccc3)CC2)cc1 [Example 181] | 87% | 37% | 55% | 82% |  | 0% | 0% | 0% | potent activities | 
3 | Fc1ccc(COCC2CCN(Cc3cccc4ccccc34)CC2)cc1 [Example 196] | 0% |  | 90% | 0% | 0% | 26% | 0% | 0% |  | 40%
4 | Fc1ccc(COCC2CCN(Cc3ccc4ccccc4c3)CC2)cc1 [Example 114] |  |  |  |  |  |  |  |  | potent activities | 
5 | c1ccc(COCC2CCN(Cc3ccccc3)CC2)cc1 [Example 185] | 29% | 0% | 28% | 26% | 0% | 0% | 0% | 0% |  | 
6 | COC(=O)c1ccc(COCC2CCN(Cc3ccccc3)CC2)cc1 [Example 186] | 0% |  | 81% | 0% | 0% | 0% | 0% | 0% |  | 
7 | Clc1ccc(OCC2CCN(Cc3ccccc3)CC2)cc1 [Example 134] |  |  |  |  |  |  |  |  | potent activities | 
8 | COC(=O)c1ccc(CN2CCC(COCc3ccc(F)cc3)CC2)cc1 [Example 187] | 98% | 96% | 51% | 0% | 0% | 0% | 0% | 0% |  | 
9 | COc1ccc(COCC2CCN(Cc3ccccc3)CC2)cc1 [Example 182] | 63% | 27% | 0% | 0% |  | 0% | 0% | 0% |  | 
10 | FC(F)(F)c1ccc(OCC2CCN(Cc3ccccc3)CC2)cc1 [Example 136] |  |  |  |  |  |  |  |  | potent activities | 
11 | O=[N+]([O-])c1ccc(OCC2CCN(Cc3ccccc3)CC2)cc1 [Example 135] |  |  |  |  |  |  |  |  | potent activities | 
12 | CC(C)=CCN1CCC(COCc2ccc(F)cc2)CC1 [Example 314] | 91% |  | 46% | 75% | 8% | 0% | 0% | 39% |  | 
13 | Fc1ccc(COCC2CCN(Cc3ccccc3)CC2)cc1 [Example 205] | 94% | 35% | 66% | 30% | 33% | 0% | 0% | 0% |  | 
14 | CCCCCCN1CCC(COCc2ccc(F)cc2)CC1 [Example 312] | 97% | 27% | 16% | 51% | 0% | 0% | 0% | 0% |  | 
15 | Fc1ccc(COC2CCN(Cc3ccccc3)CC2)cc1 [Example 315] | 99% | 52% | 90% | 46% | 0% | 0% | 0% | 19% |  | 
16 | Oc1ccc(CN2CCC(COCc3ccc(F)cc3)CC2)cc1 [Example 189] | 99% | 26% | 86% | 75% | 0% | 0% | 0% | 0% |  | 
17 | Fc1ccc(COCC2CCN(CCCc3ccccc3)CC2)cc1 [Example 313] | 97% | 29% | 40% | 91% | 0% | 0% | 0% | 0% |  | 
18 | Fc1ccc(OCC2CCN(Cc3ccc(Cl)cc3)CC2)cc1 [Example 138] |  |  |  |  |  |  |  |  | potent activities | 
